Measurements published in patent US20020040203A1, “Method for transdermal or intradermal delivery of molecules” (priority 2000, published 2002).

Columns and labels:
[1] = cited from earlier work; for charge: pH 8 stated for PP-IX
[2] = Transport of model molecules through heat-stripped porcine stratum corneum by electroporation, Hanson Vertical Diffusion chamber; assay type: in vitro ADME; settings: for transport across the SC to the acceptor chamber: negative pulses 375V, 1 msec, 1 Hz, up to 30 min
Procedure: Stratum corneum layer was obtained from porcine skin by heat treatment as follows. Fresh pieces of porcine skin were wrapped in aluminum foil and placed in a 60° C. water bath for 5 minutes. The SC was gently pulled away from the remaining tissue. The SC can be used directly or stored on glass microscope slides at 4° C. The SC was then used in a Hanson Vertical Diffusion chamber. This simple device is an accepted model system for studying transport through skin by those skilled in the art. This device contains two compartments which are filled with a suitable buffer (10 mM Tris, 100 mM NaCl, 1 mM EDTA at pH 8.0). One of the compartments acts as the donor and the other as the acceptor. The liposomes and the test molecule are added to the donor chamber. The outermost layer of the skin, the SC forms an effective barrier to the transport of biomolecules. The upper chamber was considered as the outer surface of the skin and the lower chamber as the skin directly below the SC. Platinum wires served as electrodes, one was placed in the upper chamber and the other in the lower chamber. Electric pulses were applied across the SC using a pulse generator.
Lipid formulations were prepared as follows. Dioleylphosphatidylglycerol and dioleylphosphatidyl choline was mixed at an approximate 1:1 molar ratio and dispersed in buffer by vigorous vortexing resulting in the formation of multilamellar lipid vesicles (MLV). The molecular weights of the molecules tested range from 200 to 600. The model molecules were chosen for their charge and their respective solubility.
[…] The model molecule as a solution in buffer was then added to the upper chamber. During the next 10 min no pulses were applied. An aliquot of the buffer was removed from the lower (acceptor) chamber. Pulses were next applied for 10, 20 and 30 min and aliquots removed from the lower chamber for analysis at 10, 20 and 30 min to determine delivery of the model molecule. Another aliquot was removed from the lower chamber 10 min after cessation of pulse application. In control studies, the SC was pre-pulsed for 10 min with buffer only (no lipid) and then the model molecule added in the upper chamber and pulsed for three further periods of 10 min each.
The amount of the model molecule transported to the acceptor chamber was measured in the aliquots removed at different times by using fluorescence spectroscopy.

[3] = cited from earlier work
[4] = SC pre-treated with DOPG:DOPC lipid formulation
[5] = absence of lipid formulation (pre-pulsed with buffer only)

Compound	solubility [1]	transport across the SC to the acceptor chamber [2, 4]	transport across the SC to the acceptor chamber [2, 5]	charge [1]	log P (partition coefficient between octanol and water) [3]	concentration in the lower chamber after cessation of pulse application ([2]; negative pulses, SC pre-treated with lipid formulation, 10 min without pulse)	effect of lipid formulation on transport ([2]; pulses of positive polarity, DOPG:DOPC MLV present)
C=CC1=C(C)c2cc3[nH]c(cc4nc(cc5[nH]c(cc1n2)c(C)c5CCC(=O)O)C(CCC(=O)O)=C4C)c(C)c3C=C [PP-IX, protoporphyrin IX]	low solubility	an increase in the transport in the presence of the added lipid	significant transport of PP-IX across the SC				
methylated protoprophyrin IX [MPP-IX]	soluble only in the presence of detergents	enhanced transport	very low transport	no charge			
bleomycin					very negative		
CN(C)c1ccc2nc3ccc(=[N+](C)C)cc-3sc2c1 [MB, Methylene Blue]		large amount of MB transported across the SC	very little MB present in the acceptor chamber	positively charged		continued increase in MB concentration in the lower chamber	inhibited the transport of MB
